The text below walks through data of patent US5916869A, “Method of treating birds in ovo” (North Carolina State University, priority 1997, dated 1999).

A short description of data set [1]: Broiler chick body weight after in ovo administration. In kind it is in vivo, broiler chicks. The method, then: (§1) To test this hypothesis, the following study was carried out: Four hundred and sixty eggs were randomly divided into two groups and administered either saline (control) or PYY (600 μg/kg egg weight) into the air cell on day 18 of incubation. At hatching 420 chicks were vent sexed, wing-banded, weighed and randomly placed by treatment and sex into 60 pens of 7 chicks each. Pens were equipped with chick founts, nipple drinkers, and feeders. […] The light cycle was 23 light and 1 dark for the entire experiment.
(§2) Chicks were fed a starter diet (22% CP) for the first 3 weeks and a grower diet (20% CP) for the remaining 3 weeks. Individual chicks were weighed weekly and pen feed consumption recorded as feeders were refilled. At week six, all birds were weighed and euthanized with CO2. Data were statistically analyzed using the General Linear Models Procedure of SAS (1988) with treatment, sex, room and pen as the main effects. Differences were considered significant at P<0.05.
(§3) Weight gain and Feed Conversion Ratio (FCR) were evaluated in broiler chicks treated in ovo with PYY as described in Example 1. Although there were sex differences (P<0.05) for many of the growth and performance parameters, there were no sex x treatment interactions (P<0.05). Therefore, data from both sexes was combined.

For data set [2] the following is noted: in vivo. The method, then: as §1, §2, §3
Data set [3] concerns jejunal glucose transport. To be noted: cited from earlier work; for glucose absorption: young growing mice, exogenous administration.
Data set [4] can be described thus: Broiler chick Feed Conversion Ratio (FCR) after in ovo administration. Format: in vivo, broiler chicks. How it is done:
as §1, §2, §3

For “PYY: 36 amino acid peptide hormone produced by L type endocrine cells, member of the pancreatic polypeptide family; term covers PYY-I and PYY-II [Peptide YY]”, in data set [1] (hatch and week 1 of age, in ovo injection), the “body weights vs saline control (FIG. 1)” value is reported as “significantly (P<0.05) greater”. For the same substance, the “body weight, heavier than chicks from control eggs” value in data set [1] (week 1, 600 μg/kg egg weight into air cell on day 18 of incubation, vs saline) was found to be 2.7%. The “broiler weights vs control” value in data set [1] (weeks 3 and 6, data not shown) is given as “No statistical differences”. Moreover, in data set [2], the Mortality entry is given as “less than 1%” and the “Mortality, difference between treatments” value is given as “did not differ significantly between treatments”. In data set [3] (mice treated with PYY), the “active jejunal glucose transport” value was “increase in active jejunal glucose transport”, the intestinal energy expenditure entry was “without any increase in intestinal energy expenditure” and the passive transport rates entry is given as “without a corresponding increase in passive transport rates”. Besides, the glucose absorption entry in data set [3] was “increases glucose absorption”. In addition, the “FCR, less than chicks from saline treated eggs” value in data set [4] (one week of age, 600 μg/kg egg weight in ovo) is 3.99%. Moreover, the “FCR vs saline control (FIG. 2)” value in data set [4] (week 1, in ovo injection) was “significantly lower (P<0.05)”. For the same substance, the FCR vs control entry in data set [4] (weeks 3 and 6, data not shown) is given as “No differences”.
For the substance “epidermal growth factor (NSDSECPLSHDGYCLHDGVCMYIEALDKYACNCVVGYIGERCQYRDLKWWELR; Epidermal growth factor; UniProt P01133 971-1023, looked up) [EGF, epidermal growth factor, peptide administered in ovo as comparison treatment]”, in data set [3], the glucose absorption entry was “increases glucose absorption”.
